From patent publication US10294470B2, “Electronic expression of the inward rectifier in cardiocytes derived from human induced pluripotent stem cells” (The Research Foundation for The State University of New York, priority 2013, dated 2019)

System: h-iPSC-derived cardiac myocytes
Test: Current clamp action potential recording in paced h-iPSC-derived cardiac myocytes with and without electronic IK1
Assay type: cell-based, human
Details: 1 μM; for effect on action potential duration (APD): paced cells with electronic expression of IK1,synthetic; for effect on action potential duration / repolarization / effect on spontaneous activity: paced cells without electronic IK1
Procedure: Commercially-available iPSC-derived cardiac myocytes (iCell Dynamics, WI), were prepared according to manufacturer's instructions. Briefly, ICELL® cardiac myocytes (cryopreserved single-cell suspensions in 1 ml cryovials) were stored in liquid nitrogen. Vials were thawed in a waterbath (37° C.). Cells were washed then rinsed with 1 ml of RT “ICELL® Cardiomyocyte Plating Medium.” An additional 8 ml of plating medium was added and cells mixed with solution by gentile inversion. Cardiocytes were seeded on 15 mm cover-slips coated with 0.01% (w/v) gelatin solution in 12-well plates. Cardiocytes were seeded (20,000-40,000/dish) in 2 ml of RT plating medium, permitting single cell culture, and incubated for 2+ days at 37° C., 7% CO2. Non adherent cells were removed by rinsing with “ICELL® Cardiomyocyte Maintenance Medium.” A further 2 ml of maintenance medium was added. Maintenance medium was changed every 2 days, and cells were used within 1 week.
iPSC-derived cardiocytes were voltage clamped. Currents were recorded using whole-cell clamp at RT. Cells in the recording chamber (300 μl) were continuously perfused with Tyrode. Pipettes fabricated from borosilicate glass (Flaming/Brown horizontal micropipette puller) and tips heat-polished (NARISHIGE® microforge). Pipettes contained (mM): 10 NaCl, 125 KCl, 1 MgSO4, 5 EGTA, 5 ATP (Mg salt), 5 Tris-creatinephosphate, 0.3 GTP, 10 HEPES, pH 7.2. Extracellular solution (mM): 150 NaCl, 5.4 KCl, 0.5 Na2HPO4, 1 MgCl2, 2 CaCl2), 10 glucose, 10 HEPES, pH7.4. After establishing a seal (1-10 Gohm), suction and voltage pulses were used to rupture the patch. Currents were recorded (Axopatch-1D, Molecular Dynamics, CA) and interfaced to a PENTIUM® 4 computer via a DIGIDATA® 1322A (Molecular Dynamics, CA). PCLAMP® 9.0 (Molecular Dynamics, CA) was used to control protocols and data acquisition.
We used an Analog and Digital I/O board PCIe-DAS1602/16 (Measurement Computing Corporation) installed on a on a DELL PRECISION® T7500 workstation with 2 INTEL® XEON® CPU E5520 to transfer the Vm signal to the signal of IK1 current. Source code is in the supplement.
Analysis was performed using PCLAMP® 9 (Molecular Dynamics). Action potential duration (APD) was computed for 50% (APD50) and 90% (APD90) of repolarization in ms. Maximum rate of rise of the AP upstroke was determined (dVm/dtmax) in mV/ms. Resting membrane potential was recorded prior to each AP. For spontaneous APs, the diastolic characteristics were reported for the period of time between complete AP repolarization and the beginning of depolarization in the subsequent AP. Duration, and minimum/mean potentials were computed for the diastolic period.
In order to overcome the lack of IK1 in h-iPSC-derived cardiac myocytes, we developed a variation of the dynamic clamp approach to inject a synthetic version of IK1 (FIG. 1). The center of the system is the isolated h-iPSC-derived cardiac myocyte under whole cell voltage or current clamp. Whole cell clamp is accomplished with a gigaseal under conventional current clamp mode. The membrane voltage of the cardiac myocyte is output from the amplifier and fed into a computer via a digitizer which calculates the inward rectifier current for the membrane potential, according to the equation shown in FIG. 1. The calculated value of IK1,Synthetic is passed through a potentiometer (used to adjust amplitude without sacrificing digital resolution) to scale IK1 and then summed with the standard stimulation input from PCLAMP®. A switch allows rapid changes between conventional current clamp and summed input. When the summed input is switched on, the myocyte receives the sum of two inputs: the standard AP stimulus current plus IK1,Synthetic from the real-time current simulator. The standard voltage clamp electronics can be driven via the summing circuit without modification of conventional voltage clamp and data recording with only minor software selection changes of input/output channels. […]

COC(=O)C1=C(C)NC(C)=C([N+](=O)[O-])C1c1ccccc1C(F)(F)F (stereo not drawn) [BayK-8644]
effect on action potential duration (APD): clear AP prolongation | effect on action potential duration (APD) (listed as BayK8644): APD is prolonged | effect on action potential duration / repolarization: not uniformly observed | effect on spontaneous activity: termination of spontaneous full scale AP activity | effect on action potential duration / repolarization (listed as BayK8644): severely shortened repolarization | effect on spontaneous activity (listed as BayK8644): terminated spontaneous activity | arrhythmogenic phenomenon of alternans (with IK1,synthetic): alternans is observed | Ratio of APD90 with/without BayK8644 (with IK1,synthetic expression): major increase in APD | Ratio of APD90 with/without BayK8644 (without IK1,synthetic expression): anomalous decrease in APD90
